Assay [1] has as its target T1, human GLP-1 receptor (Homo sapiens, UniProt P43220).
T1 construct: expressed in transfected cells; host or cells: BHK cells, clone FCW467-12A/KZ10-1 (parent line BHKTS13), further transfected with CRE luciferase
Description: GLP-1 receptor binding (SPA, displacement of 125I-GLP-1). As for the experimental part: The purpose of this experiment is to investigate the binding to the GLP-1 receptor of the GLP-1 derivatives, and how the binding is potentially influenced by the presence of albumin. This is done in an in vitro experiment as described below.
In order to test the binding of the derivatives to albumin, the assay was performed with a low concentration of albumin (0.001%—corresponding to the residual amount thereof in the tracer), as well as with a high concentration of albumin (2.0% added). A shift in the binding affinity, IC50, is an indication that the peptide in question binds to albumin, and thereby a prediction of a potential protracted pharmacokinetic profile of the peptide in question in animal models.
Species (in vitro): Hamster
Biological End Point: Receptor Binding
A stable transfected cell line and a high expressing clone were selected for screening. The cells were grown at 5% CO2 in DMEM, 10% FCS, 1% Pen/Strep (Penicillin/Streptomycin) and 1.0 mg/ml of the selection marker G418.
The cells (approx. 80% confluence) were washed twice in PBS and harvested with Versene (aqueous solution of the tetrasodium salt of ethylenediaminetetraacetic acid), following which they were separated by centrifugation at 1000 rpm for 5 min. The cells/cell pellet must be kept on ice to the extent possible in the subsequent steps. The cell pellet was homogenised with Ultrathurrax for 20-30 seconds in a suitable amount of Buffer 1 (depending on the amount of cells, but e.g. 10 ml). The homogenate was centrifuged at 20000 rpm for 15 minutes. The pellet was resuspended (homogenised) in 10 ml Buffer 2 and re-centrifuged. This step was repeated once more. The resulting pellet was resuspended in Buffer 2, and the protein concentration was determined. The membranes were stored at minus 80° C.
Buffer 1:20 mM Na-HEPES+10 mM EDTA, pH 7.4
Buffer 2:20 mM Na-HEPES+0.1 mM EDTA, pH 7.4
Test compounds, membranes, SPA-particles and [^125I]-GLP-1(7-36)NH2 were diluted in assay buffer. 50 ul (micro liter) HSA (“high albumin” experiment containing 2% HSA), or buffer (“low albumin” experiment containing 0.001% HSA) was added to Optiplate, and 25 ul of test compounds were added. 5-10 ug membrane protein/sample was added (50 ul) corresponding to 0.1-0.2 mg protein/ml (to be preferably optimised for each membrane preparation). SPA-particles (Wheatgerm agglutinin SPA beads, Perkin Elmer, # RPNQ0001) were added in an amount of 0.5 mg/well (50 ul). The incubation was started with [^125I]-GLP-1]-(7-36)NH2 (final concentration 0.06 nM corresponding to 49.880 DPM, 25 ul). The plates were sealed with PlateSealer and incubated for 120 minutes at 30° C. while shaking. The plates were centrifuged (1500 rpm, 10 min) and counted in Topcounter.

In assay [2] the target is T1, human GLP-1 receptor. Description: In vitro potency (CRE luciferase; whole cells). The note with it: for EC50: BHK cells; for EC50/pM (ratio 1% HSA/0% HSA): ratio of EC50 at 1% HSA to EC50 at 0% HSA. Also noted: EC50/pM (ratio 1% HSA/0% HSA): unit not given here. The format is cell-based. The procedure: The purpose of this example is to test the activity, or potency, of the GLP-1 derivatives in vitro. The in vitro potency is the measure of human GLP-1 receptor activation in a whole cell assay.
In vitro potency was determined by measuring the response of human GLP-1 receptor in a reporter gene assay. The assay was performed in a stably transfected BHK cell line that expresses the human GLP-1 receptor and contains the DNA for the cAMP response element (CRE) coupled to a promoter and the gene for firefly luciferase (CRE luciferase). When the human GLP-1 receptor was activated it results in the production of cAMP, which in turn results in the luciferase protein being expressed. When assay incubation was completed the luciferase substrate (luciferin) was added and the enzyme converts luciferin to oxyluciferin and produces bioluminescence. The luminescence was measured and was the readout for the assay.
An increase of the in vitro potency, EC50 value, in the presence of serum albumin indicates an affinity to serum albumin and represents a method to predict a protracted pharmacokinetic profile of the test substance in animal models.
The cells were cultured at 5% CO2 in cell culture medium. They were aliquoted and stored in liquid nitrogen. Before each assay an aliquot was taken up and washed twice in PBS before being suspended at the desired concentration in the assay specific buffer.
The following chemicals were used in the assay: Pluronic F-68 (10%) (Gibco 2404), human serum albumin (HSA) (Sigma A9511), ovalbumin (Sigma A5503), DMEM w/o phenol red (Gibco 11880-028), 1 M Hepes (Gibco 15630), Glutamax 100× (Gibco 35050) and steadylite plus (PerkinElmer 6016757).
1) Cell stocks were thawed in a 37° C. water bath.
2) Cells were washed three times in PBS.
3) The cells were counted and adjusted to 5×10^3 cells/50 μl (1×10^5 cells/ml) in assay medium. A 50 μl aliquot of cells was transferred to each well in the assay plate.
4) Stocks of the test compounds and reference compounds were diluted to a concentration of 0.2 μM in 0% assay buffer for the 0% HSA CRE luciferase assay and 1% assay buffer for the HSA CRE luciferase assay. […] 5) A 50 μl aliquot of compound or blank was transferred in triplicate from the dilution plate to the assay plate. […] 7) The assay plate was removed from the incubator and allowed to stand at room temperature for 15 min. 8) A 100 μl aliquot of steadylite plus reagent was added to each well of the assay plate (reagent was light sensitive). 9) Each assay plate was covered with aluminum foil to protect it from light and shaken for 30 min at room temperature. 10) Each assay plate was read in a Packard TopCount NXT instrument. Calculations and Results
The data from the TopCount instrument were transferred to GraphPad Prism software. The software averages the values for each replicate and performs a non-linear regression.

Where [3] appears, read: Receptor binding affinity IC50 (high HSA), 2.0% HSA (high albumin).
[4] abbreviates: Receptor binding affinity IC50 (low HSA), 0.001% HSA (low albumin).
The mark [5] stands for this setting: In vitro potency (CRE luciferase) EC50 (1% HSA), 1% HSA.
[6] abbreviates: In vitro potency (CRE luciferase) EC50 (0% HSA), 0% HSA.

Usually IC50 stands for the concentration that inhibits the measured activity by half. For orientation: EC50 means the concentration needed to bring the measured effect to its halfway point.

T1 sequence (P43220 24-463): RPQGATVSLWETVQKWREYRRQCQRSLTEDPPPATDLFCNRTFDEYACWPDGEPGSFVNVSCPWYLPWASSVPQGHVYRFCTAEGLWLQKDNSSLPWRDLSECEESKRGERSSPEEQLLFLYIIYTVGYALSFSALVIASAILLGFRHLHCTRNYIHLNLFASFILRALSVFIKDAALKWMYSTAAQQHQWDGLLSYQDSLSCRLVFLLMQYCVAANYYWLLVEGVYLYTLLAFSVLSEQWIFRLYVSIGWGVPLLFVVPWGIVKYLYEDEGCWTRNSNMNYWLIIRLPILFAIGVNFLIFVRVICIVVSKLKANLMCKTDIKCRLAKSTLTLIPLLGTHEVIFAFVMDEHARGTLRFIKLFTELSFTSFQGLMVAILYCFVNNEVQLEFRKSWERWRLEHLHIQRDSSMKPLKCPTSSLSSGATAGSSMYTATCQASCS

As for `CC[C@H](C)[C@H](NC(=O)[C@H](Cc1ccccc1)NC(=O)[C@H](CCC(=O)O)NC(=O)[C@H](CCCCNC(=O)[C@@H](N)CCCCNC(=O)[C@@H](N)CCCCNC(=O)CC[C@H](NC(=O)CCCCCCCCCCOc1ccc(C(=O)O)cc1)C(=O)O)NC(=O)[C@H](C)NC(=O)[C@H](C)NC(=O)[C@H](CCC(N)=O)NC(=O)CNC(=O)[C@H](CCC(=O)O)NC(=O)[C@H](CC(C)C)NC(=O)[C@H](Cc1ccc(O)cc1)NC(=O)[C@H](CO)NC(=O)[C@H](CO)NC(=O)[C@@H](NC(=O)[C@H](CC(=O)O)NC(=O)[C@H](CO)NC(=O)[C@@H](NC(=O)[C@H](Cc1ccccc1)NC(=O)[C@@H](NC(=O)CNC(=O)[C@H](CCC(=O)O)NC(=O)C(C)(C)NC(=O)[C@@H](N)Cc1c[nH]cn1)[C@@H](C)O)[C@@H](C)O)C(C)C)C(=O)N[C@@H](C)C(=O)N[C@@H](Cc1c[nH]cn1)C(=O)N[C@@H](CC(C)C)C(=O)N[C@H](C(=O)N[C@@H](CCC(N)=O)C(=O)NCC(=O)N[C@@H](CCCNC(=N)N)C(=O)N[C@@H](CCCCNC(=O)[C@@H](N)CCCCNC(=O)[C@@H](N)CCCCNC(=O)CC[C@H](NC(=O)CCCCCCCCCCOc1ccc(C(=O)O)cc1)C(=O)O)C(=O)O)C(C)C` [Example 31, N^ε26-[(2S)-2-amino-6-[[(2S)-2-amino-6-[[(4S)-4-carboxy-4-[11-(4-carboxyphenoxy)undecanoylamino]butanoyl]amino]hexanoyl]amino]hexanoyl], N^ε37-[(2S)-2-amino-6-[[(2S)-2-amino-6-[[(4S)-4-carboxy-4-[11-(4-carboxyphenoxy)undecanoylamino]butanoyl]amino]hexanoyl]amino]hexanoyl]-[Aib^8,His^31,Gln^34,Lys^37]-GLP-1-(7-37)-peptide], the IC50 amounted to 40 nM on human GLP-1 receptor [1] (setting [3]) and 0.76 nM at human GLP-1 receptor [1] (setting [4]). Also, the half-maximal effective concentration (EC50) at human GLP-1 receptor [2] (setting [5]) was 0.55 nM. The “EC50/pM (ratio 1% HSA/0% HSA)” value at human GLP-1 receptor [2] is 82.

In the case of `CC[C@H](C)[C@H](NC(=O)[C@H](Cc1ccccc1)NC(=O)[C@H](CCC(=O)O)NC(=O)[C@H](CCCCNC(=O)[C@@H](N)CCCCNC(=O)[C@@H](N)CCCCNC(=O)CC[C@H](NC(=O)CCCCCCCCCOc1ccc(C(=O)O)cc1)C(=O)O)NC(=O)[C@H](C)NC(=O)[C@H](C)NC(=O)[C@H](CCC(N)=O)NC(=O)CNC(=O)[C@H](CCC(=O)O)NC(=O)[C@H](CC(C)C)NC(=O)[C@H](Cc1ccc(O)cc1)NC(=O)[C@H](CO)NC(=O)[C@H](CO)NC(=O)[C@@H](NC(=O)[C@H](CC(=O)O)NC(=O)[C@H](CO)NC(=O)[C@@H](NC(=O)[C@H](Cc1ccccc1)NC(=O)[C@@H](NC(=O)CNC(=O)[C@H](CCC(=O)O)NC(=O)C(C)(C)NC(=O)[C@@H](N)Cc1c[nH]cn1)[C@@H](C)O)[C@@H](C)O)C(C)C)C(=O)N[C@@H](C)C(=O)N[C@@H](Cc1c[nH]cn1)C(=O)N[C@@H](CC(C)C)C(=O)N[C@H](C(=O)N[C@@H](CCC(N)=O)C(=O)NCC(=O)N[C@@H](CCCNC(=N)N)C(=O)N[C@@H](CCCCNC(=O)[C@@H](N)CCCCNC(=O)[C@@H](N)CCCCNC(=O)CC[C@H](NC(=O)CCCCCCCCCOc1ccc(C(=O)O)cc1)C(=O)O)C(=O)O)C(C)C` [Example 32, N^ε26-[(2S)-2-amino-6-[[(2S)-2-amino-6-[[(4S)-4-carboxy-4-[10-(4-carboxyphenoxy)decanoylamino]butanoyl]amino]hexanoyl]amino]hexanoyl], N^ε37-[(2S)-2-amino-6-[[(2S)-2-amino-6-[[(4S)-4-carboxy-4-[10-(4-carboxyphenoxy)decanoylamino]butanoyl]amino]hexanoyl]amino]hexanoyl]-[Aib^8,His^31,Gln^34,Lys^37]-GLP-1-(7-37)-peptide], the IC50 on human GLP-1 receptor [1] (setting [3]) is 27 nM; at human GLP-1 receptor [1] (setting [4]), 1.57 nM. In addition, the values for the EC50 at human GLP-1 receptor [2] (setting [6]) and at human GLP-1 receptor [2] (setting [5]) were 0.011 nM and 0.162 nM, respectively. Besides, the “EC50/pM (ratio 1% HSA/0% HSA)” value on human GLP-1 receptor [2] was found to be 14.

In the case of `CC[C@H](C)[C@H](NC(=O)[C@H](Cc1ccccc1)NC(=O)[C@H](CCC(=O)O)NC(=O)[C@H](CCCCNC(=O)[C@@H](N)CCCCNC(=O)[C@@H](N)CCCCNC(=O)COCCOCCNC(=O)COCCOCCNC(=O)CC[C@H](NC(=O)CCCCCCCCCCOc1ccc(C(=O)O)cc1)C(=O)O)NC(=O)[C@H](C)NC(=O)[C@H](C)NC(=O)[C@H](CCC(N)=O)NC(=O)CNC(=O)[C@H](CCC(=O)O)NC(=O)[C@H](CC(C)C)NC(=O)[C@H](Cc1ccc(O)cc1)NC(=O)[C@H](CO)NC(=O)[C@H](CO)NC(=O)[C@@H](NC(=O)[C@H](CC(=O)O)NC(=O)[C@H](CO)NC(=O)[C@@H](NC(=O)[C@H](Cc1ccccc1)NC(=O)[C@@H](NC(=O)CNC(=O)[C@H](CCC(=O)O)NC(=O)C(C)(C)NC(=O)[C@@H](N)Cc1c[nH]cn1)[C@@H](C)O)[C@@H](C)O)C(C)C)C(=O)N[C@@H](C)C(=O)N[C@@H](Cc1c[nH]c2ccccc12)C(=O)N[C@@H](CC(C)C)C(=O)N[C@H](C(=O)N[C@@H](CCCNC(=N)N)C(=O)NCC(=O)N[C@@H](CCCNC(=N)N)C(=O)N[C@@H](CCCCNC(=O)[C@@H](N)CCCCNC(=O)[C@@H](N)CCCCNC(=O)COCCOCCNC(=O)COCCOCCNC(=O)CC[C@H](NC(=O)CCCCCCCCCCOc1ccc(C(=O)O)cc1)C(=O)O)C(=O)O)C(C)C` [Example 33], the IC50 on human GLP-1 receptor [1] (setting [3]) is 33 nM; at human GLP-1 receptor [1] (setting [4]) it was 0.31 nM. In addition, the EC50 worked out at 0.0074 nM at human GLP-1 receptor [2] (setting [6]) and 0.069 nM at human GLP-1 receptor [2] (setting [5]). The “EC50/pM (ratio 1% HSA/0% HSA)” value at human GLP-1 receptor [2] stood at 11.

(Values after patent US10604554B2, “Double-acylated GLP-1 derivatives” (Novo Nordisk A/S, priority 2012, dated 2020).)
